tested on: HT-29 cells; experiment: MTT cell viability assay, HT-29; type: cell-based; conditions: Homo sapiens, 72 h, MTT assay, 3 d treatment, serial dilutions
Experimental: MTT assay was conducted for HT-29 cells after 3 d treatment with indicated compounds with serial dilutions.
MTT assay was conducted for HT-29 (A) and SK-MEL-28 (B) cells after 3 d treatment with DMSO or indicated compounds with serial dilutions. Clonogenic assay was performed in HT-29 (C) and SK-MEL-28 (D) cells for 14 d treatment with DMSO or indicated compounds with 10, 30 and 100 nM, in duplicate, respectively. Cells were then stained by crystal violet.
Cells (2000 cells per well) were seeded into 96-well microplates. After 20 h, cells were treated with 0.1% DMSO or indicated serial dilutions of compounds in duplicate or triplicate for 3 days. Cell viability was tested using MTT (M6494, Thermo Fisher Scientific) or WST-8 reagent (CK04, Dojindo). Briefly, 12 mM MTT was prepared in PBS or WST-8 reagent was warmed up to room temperature. 20 μL MTT or CCK-8 was then added to each well and the plates were kept in incubator at 37° C. for 3 h in the dark. For the WST-8 assay, signal was obtained after the incubation. For the MTT assay, cell medium was replaced with 200 μL of DMSO after the incubation, and then cell plates were kept at 37° C. for another 30 min. Absorbance signals for MTT and WST-8 were read at 540 nm and 450 nm respectively, with 690 nm as reference performed with Infinite F PLEX plate reader (TECAN, Morrisville, NC, USA). GI50 values were analyzed using GraphPad Prism 8 from the data of at least three independent experiments.
HT-29 or SK-MEL-28 cells (300 cells per well) were seeded in 12-well plates. After 20 h, cells were treated with DMSO or indicated concentrations of compounds in duplicate for two weeks. Medium containing indicated compounds was changed every 3 days. Cells were then fixed and stained with the solution containing 6% (v/v) glutaraldehyde (G5882, Sigma-Aldrich) and 0.5% (w/v) crystal violet for 1 h. To remove the background color, the plates with stained cells were immersed in running water until clear colonies were observed. The plates were dried at RT. The staining images were obtained with Epson Perfection V600 Photo.

Going from `Cc1ncsc1-c1ccc(CNC(=O)[C@@H]2C[C@@H](O)CN2C(=O)[C@@H](NC(=O)CNCCCONC(=O)c2ccc(F)c(F)c2Nc2ccc(I)cc2F)C(C)(C)C)cc1` [CPD-005, (2S,4R)-1-((S)-11-(tert-Butyl)-1-(3,4-difluoro-2-((2-fluoro-4-iodophenyl)amino)phenyl)-1,9-dioxo-3-oxa-2,7,10-triazadodecan-12-oyl)-4-hydroxy-N-(4-(4-methylthiazol-5-yl)benzyl)pyrrolidine-2-carboxamide] to `Cc1ncsc1-c1ccc(CNC(=O)[C@@H]2C[C@@H](O)CN2C(=O)[C@@H](NC(=O)CCNCCCONC(=O)c2ccc(F)c(F)c2Nc2ccc(I)cc2F)C(C)(C)C)cc1` [CPD-006, (2S,4R)-1-((S)-12-(tert-Butyl)-1-(3,4-difluoro-2-((2-fluoro-4-iodophenyl)amino)phenyl)-1,10-dioxo-3-oxa-2,7,11-triazatridecan-13-oyl)-4-hydroxy-N-(4-(4-methylthiazol-5-yl)benzyl)pyrrolidine-2-carboxamide], the GI50 rises from 1.8 ± 0.4 µM to 5 ± 1.1 µM (2.8-fold).

Going from `Cc1ncsc1-c1ccc([C@H](C)NC(=O)[C@@H]2C[C@@H](O)CN2C(=O)[C@@H](NC(=O)CCCCCCCCCNCCCONC(=O)c2ccc(F)c(F)c2Nc2ccc(I)cc2F)C(C)(C)C)cc1` [CPD-036, (2S,4R)-1-((S)-19-(tert-butyl)-1-(3,4-difluoro-2-((2-fluoro-4-iodophenyl)amino)phenyl)-1,17-dioxo-3-oxa-2,7,18-triazaicosan-20-oyl)-4-hydroxy-N—((S)-1-(4-(4-methylthiazol-5-yl)phenyl)ethyl)pyrrolidine-2-carboxamide] to `Cc1ncsc1-c1ccc([C@H](C)NC(=O)[C@@H]2C[C@@H](O)CN2C(=O)[C@@H](NC(=O)CCCCCCCCCCCNCCCONC(=O)c2ccc(F)c(F)c2Nc2ccc(I)cc2F)C(C)(C)C)cc1` [CPD-033, (2S,4R)-1-((S)-21-(tert-butyl)-1-(3,4-difluoro-2-((2-fluoro-4-iodophenyl)amino)phenyl)-1,19-dioxo-3-oxa-2,7,20-triazadocosan-22-oyl)-4-hydroxy-N—((S)-1-(4-(4-methylthiazol-5-yl)phenyl)ethyl)pyrrolidine-2-carboxamide], the GI50 falls from 0.24 ± 0.055 µM to 0.099 ± 0.008 µM (2.4-fold).

`O=C1CCC(N2C(=O)c3cccc(NCCCCCCCCNCCCONC(=O)c4ccc(F)c(F)c4Nc4ccc(I)cc4F)c3C2=O)C(=O)N1` (centres unmarked) [CPD-030, N-(3-((8-((2-(2,6-dioxopiperidin-3-yl)-1,3-dioxoisoindolin-4-yl)amino)octyl)amino)propoxy)-3,4-difluoro-2-((2-fluoro-4-iodophenyl)amino)benzamide] and `O=C1CCC(N2C(=O)c3cccc(NCCCCCCCNCCCONC(=O)c4ccc(F)c(F)c4Nc4ccc(I)cc4F)c3C2=O)C(=O)N1` (centres unmarked) [CPD-029, N-(3-((7-((2-(2,6-dioxopiperidin-3-yl)-1,3-dioxoisoindolin-4-yl)amino)heptyl)amino)propoxy)-3,4-difluoro-2-((2-fluoro-4-iodophenyl)amino)benzamide] are within error of each other in GI50: 3.5 ± 0.9 µM for the first, 4.5 ± 1.9 µM for the second.

First: Cc1ncsc1-c1ccc(CNC(=O)[C@@H]2C[C@@H](O)CN2C(=O)[C@@H](NC(=O)CCOCCOCCOCCNCCCONC(=O)c2ccc(F)c(F)c2Nc2ccc(I)cc2F)C(C)(C)C)cc1 [CPD-016, (2S,4R)-1-((S)-21-(tert-butyl)-1-(3,4-difluoro-2-((2-fluoro-4-iodophenyl)amino)phenyl)-1,19-dioxo-3,10,13,16-tetraoxa-2,7,20-triazadocosan-22-oyl)-4-hydroxy-N-(4-(4-methylthiazol-5-yl)benzyl)pyrrolidine-2-carboxamide]
Second: Cc1ncsc1-c1ccc(CNC(=O)[C@@H]2C[C@@H](O)CN2C(=O)[C@@H](NC(=O)CCOCCOCCOCCOCCNCCCONC(=O)c2ccc(F)c(F)c2Nc2ccc(I)cc2F)C(C)(C)C)cc1 [CPD-017, (2S,4R)-1-((S)-24-(tert-butyl)-1-(3,4-difluoro-2-((2-fluoro-4-iodophenyl)amino)phenyl)-1,22-dioxo-3,10,13,16,19-pentaoxa-2,7,23-triazapentacosan-25-oyl)-4-hydroxy-N-(4-(4-methylthiazol-5-yl)benzyl)pyrrolidine-2-carboxamide]
The GI50 of the first is 1.9-fold higher: 3.3 ± 0.6 µM for the first, 1.7 ± 0.1 µM for the second.

`Cc1ncsc1-c1ccc(CNC(=O)[C@@H]2C[C@@H](O)CN2C(=O)[C@@H](NC(=O)COCCOCCNCCCONC(=O)c2ccc(F)c(F)c2Nc2ccc(I)cc2F)C(C)(C)C)cc1` [CPD-012, (2S,4R)-1-((S)-17-(tert-butyl)-1-(3,4-difluoro-2-((2-fluoro-4-iodophenyl)amino)phenyl)-1,15-dioxo-3,10,13-trioxa-2,7,16-triazaoctadecan-18-oyl)-4-hydroxy-N-(4-(4-methylthiazol-5-yl)benzyl)pyrrolidine-2-carboxamide] and `Cc1ncsc1-c1ccc(CNC(=O)[C@@H]2C[C@@H](O)CN2C(=O)[C@@H](NC(=O)CCOCCOCCNCCCONC(=O)c2ccc(F)c(F)c2Nc2ccc(I)cc2F)C(C)(C)C)cc1` [CPD-004, (2S,4R)-1-((S)-18-(tert-Butyl)-1-(3,4-difluoro-2-((2-fluoro-4-iodophenyl)amino)phenyl)-1,16-dioxo-3,10,13-trioxa-2,7,17-triazanonadecan-19-oyl)-4-hydroxy-N-(4-(4-methylthiazol-5-yl)benzyl)pyrrolidine-2-carboxamide] are the same in GI50: 1.6 ± 0.3 µM for the first, 1.6 ± 0.3 µM for the second.

Going from `Cc1ncsc1-c1ccc(CNC(=O)[C@@H]2C[C@@H](O)CN2C(=O)[C@@H](NC(=O)CCOCCNCCCONC(=O)c2ccc(F)c(F)c2Nc2ccc(I)cc2F)C(C)(C)C)cc1` [CPD-003, (2S,4R)-1-((S)-15-(tert-Butyl)-1-(3,4-difluoro-2-((2-fluoro-4-iodophenyl)amino)phenyl)-1,13-dioxo-3,10-dioxa-2,7,14-triazahexadecan-16-oyl)-4-hydroxy-N-(4-(4-methylthiazol-5-yl)benzyl)pyrrolidine-2-carboxamide] to `Cc1ncsc1-c1ccc(CNC(=O)[C@@H]2C[C@@H](O)CN2C(=O)[C@@H](NC(=O)CCCNCCCONC(=O)c2ccc(F)c(F)c2Nc2ccc(I)cc2F)C(C)(C)C)cc1` [CPD-008, (2S,4R)-1-((S)-13-(tert-Butyl)-1-(3,4-difluoro-2-((2-fluoro-4-iodophenyl)amino)phenyl)-1,11-dioxo-3-oxa-2,7,12-triazatetradecan-14-oyl)-4-hydroxy-N-(4-(4-methylthiazol-5-yl)benzyl)pyrrolidine-2-carboxamide], the GI50 rises from 4.8 ± 0.7 µM to 11 ± 0.9 µM (2.3-fold).

`O=C1CCC(N2C(=O)c3ccc(NCCCCNCCCONC(=O)c4ccc(F)c(F)c4Nc4ccc(I)cc4F)cc3C2=O)C(=O)N1` (centres unmarked) [CPD-042, N-(3-((4-((2-(2,6-dioxopiperidin-3-yl)-1,3-dioxoisoindolin-5-yl)amino)butyl)amino)propoxy)-3,4-difluoro-2-((2-fluoro-4-iodophenyl)amino)benzamide] and `O=C1CCC(N2C(=O)c3ccc(NCCOCCNCCCONC(=O)c4ccc(F)c(F)c4Nc4ccc(I)cc4F)cc3C2=O)C(=O)N1` (centres unmarked) [CPD-047, N-(3-((2-(2-((2-(2,6-dioxopiperidin-3-yl)-1,3-dioxoisoindolin-5-yl)amino)ethoxy)ethyl)amino)propoxy)-3,4-difluoro-2-((2-fluoro-4-iodophenyl)amino)benzamide] are within error of each other in GI50: 1 ± 0.4 µM for the first, 1.4 ± 0.7 µM for the second.

Compared with `Cc1ncsc1-c1ccc(CNC(=O)[C@@H]2C[C@@H](O)CN2C(=O)[C@@H](NC(=O)CCCCCCCCNCCCONC(=O)c2ccc(F)c(F)c2Nc2ccc(I)cc2F)C(C)(C)C)cc1` [CPD-010, (2S,4R)-1-((S)-18-(tert-butyl)-1-(3,4-difluoro-2-((2-fluoro-4-iodophenyl)amino)phenyl)-1,16-dioxo-3-oxa-2,7,17-triazanonadecan-19-oyl)-4-hydroxy-N-(4-(4-methylthiazol-5-yl)benzyl)pyrrolidine-2-carboxamide], `Cc1ncsc1-c1ccc(CNC(=O)[C@@H]2C[C@@H](O)CN2C(=O)[C@@H](NC(=O)CCCCCNCCCONC(=O)c2ccc(F)c(F)c2Nc2ccc(I)cc2F)C(C)(C)C)cc1` [CPD-009, (2S,4R)-1-((S)-15-(tert-butyl)-1-(3,4-difluoro-2-((2-fluoro-4-iodophenyl)amino)phenyl)-1,13-dioxo-3-oxa-2,7,14-triazahexadecan-16-oyl)-4-hydroxy-N-(4-(4-methylthiazol-5-yl)benzyl)pyrrolidine-2-carboxamide] is 3.5-fold higher in GI50: 0.6 ± 0.1 µM for the first, 2.1 ± 0.1 µM for the second.

`O=C1CCC(N2C(=O)c3cccc(NCCCCNCCCONC(=O)c4ccc(F)c(F)c4Nc4ccc(I)cc4F)c3C2=O)C(=O)N1` (centres unmarked) [CPD-026, N-(3-((4-((2-(2,6-dioxopiperidin-3-yl)-1,3-dioxoisoindolin-4-yl)amino)butyl)amino)propoxy)-3,4-difluoro-2-((2-fluoro-4-iodophenyl)amino)benzamide] and `O=C1CCC(N2C(=O)c3cccc(NCCCCCNCCCONC(=O)c4ccc(F)c(F)c4Nc4ccc(I)cc4F)c3C2=O)C(=O)N1` (centres unmarked) [CPD-027, N-(3-((5-((2-(2,6-dioxopiperidin-3-yl)-1,3-dioxoisoindolin-4-yl)amino)pentyl)amino)propoxy)-3,4-difluoro-2-((2-fluoro-4-iodophenyl)amino)benzamide] are within error of each other in GI50: 1.9 ± 0.4 µM for the first, 1.8 ± 0.5 µM for the second.

Going from `Cc1ncsc1-c1ccc([C@H](C)NC(=O)[C@@H]2C[C@@H](O)CN2C(=O)[C@@H](NC(=O)CCCCCCCCCCNCCCCONC(=O)c2ccc(F)c(F)c2Nc2ccc(I)cc2F)C(C)(C)C)cc1` [CPD-039, (2S,4R)-1-((S)-21-(tert-butyl)-1-(3,4-difluoro-2-((2-fluoro-4-iodophenyl)amino)phenyl)-1,19-dioxo-3-oxa-2,8,20-triazadocosan-22-oyl)-4-hydroxy-N—((S)-1-(4-(4-methylthiazol-5-yl)phenyl)ethyl)pyrrolidine-2-carboxamide] to `O=C1CCC(N2C(=O)c3cccc(NCCOCCOCCOCCOCCNCCCONC(=O)c4ccc(F)c(F)c4Nc4ccc(I)cc4F)c3C2=O)C(=O)N1` (centres unmarked) [CPD-022, N-((1-((2-(2,6-dioxopiperidin-3-yl)-1,3-dioxoisoindolin-4-yl)amino)-3,6,9,12-tetraoxa-15-azaoctadecan-18-yl)oxy)-3,4-difluoro-2-((2-fluoro-4-iodophenyl)amino)benzamide], the GI50 rises from 0.043 ± 0.001 µM to 0.6 ± 0.09 µM (14-fold).

From patent US12103924B2, “Mitogen-activated protein kinase kinase (MEK) degradation compounds and methods of use” (Icahn School of Medicine at Mount Sinai, priority 2020, dated 2024)
